{"source": "patent US9783521B2", "about": "“PDE10 inhibitors and related compositions and methods” (Omeros Corporation, priority 2008, dated 2017)", "key": {"C57BL/6 male mice [1]": {"test_system": "C57BL/6 male mice", "test": "Conditioned avoidance response (CAR) model of psychosis", "assay_type": "in vivo", "settings": "for number of avoidance responses (CAR) vs vehicle: 30 trials; for conditioned avoidance response (CAR) in trained mice as compared to vehicle control: mouse, in vivo", "source_text": "Conditioned avoidance response (CAR) is a behavioral test to evaluate antipsychotic effect of a test compound. […] Each chamber is fitted with metal grid floor that is capable of delivering electric shocks independently. A computer program is used to implement the testing paradigm as well as record the animal's movement between the two chambers through infrared beam sensors. The testing paradigm is as the follows. A mouse is placed into one chamber. A light (conditioned stimulus, CS) comes on. Five seconds later, mild electric shocks (0.4 mA) (unconditioned stimulus, US) are delivered to the chamber where the mouse is located (as detected by infrared beams) until the mouse escapes to the adjacent chamber or until 10 sec has elapsed. The US and CS always co-terminate. With randomized inter-trial intervals averaging 15 sec, 30 such CS-US pairing trials are given to each mouse each day. For each trial, an escape response is registered if the mouse crosses to the other chamber after being shocked (i.e., during the 10-sec US period), and an avoidance response is registered if the mouse crosses to the other chamber during the first 5-sec CS only period. The animals are trained in such paradigm for 15-20 days, during which the average percentage of avoidance responses will improve to 60-80%. […] These trained animals are then used for compound testing using the same paradigm.\nThe mice were then injected with either compound or vehicle via i.p., and 20 minutes later they were tested for 30 trials in the CAR paradigm. Vehicle treatment and compound treatment were given to the same animals on alternating days, and the effect of compound in reducing avoidance response was analyzed through within-subject comparison (paired t-test). […] The mice were then given either vehicle (15 minutes prior to testing) or compound (25 minutes prior to testing) via oral gavage, and were tested for 30 trials in the CAR paradigm. Vehicle treatment and compound treatment were given to the same animals on alternating days, and the effect of compound in reducing avoidance response was analyzed through within-subject comparison (paired t-test).\nThe mice were then given either vehicle (15 minutes prior to testing) or compound (25 minutes prior to testing) via oral gavage, and then were tested for 30 trials in the CAR paradigm. Vehicle treatment and compound treatment were given to the same animals on alternating days, and the effect of compound in reducing avoidance response was analyzed through within-subject comparison (paired t-test).\nThe mice were then given either vehicle (15 minutes prior to testing) or compound (25 minutes prior to testing) via oral gavage, and were then tested for 30 trials in the CAR paradigm. Vehicle treatment and compound treatment were given to the same animals on alternating days, and the effect of compound in reducing avoidance response was analyzed through within-subject comparison (paired t-test).\nThe mice were then given either vehicle (15 minutes prior to testing) or compound (25 minutes prior to testing) via oral gavage, and were tested for 30 trials in the CAR paradigm."}, "C57BL/6 male mice [2]": {"test_system": "C57BL/6 male mice", "test": "PCP-induced hyperactivity (psychostimulant-induced model of psychosis)", "assay_type": "in vivo", "description": "Psychostimulant-induced hyperactivity is measured by injecting animals with PCP and monitoring the animals' activity levels in the VersaMax chambers (Accuscan Instruments, Columbus, Ohio) measuring 40×40 cm. Locomotor activity is detected by photobeam breaks as the animal crosses each beam. The animal is placed in the center of the field and left undisturbed for a period of time (20 min to 2 hr) to measure its spontaneous activity in a novel environment. Measurements used to assess locomotor activity include: horizontal activity, total distance traveled, vertical activity (rearing events—animal raises up on hindlimbs), rotation, stereotypy, and distance traveled in the center compared to total distance traveled (center: total distance ratio). The NMDA antagonist PCP induces psychosis-like conditions manifested as hyperactivity and increased stereotypic behavior. Known antipsychotics are able to reverse psychostimulant-induced hyperactivity and increased stereotypy.\nC57BL/6 male mice were injected with either compound (10 mg/kg) or vehicle via i.p. Ten minutes later, the mice were injected with PCP (5 mg/kg) via i.p. The mice were placed in the activity chambers 10 minutes after PCP injection and their locomotor activities were monitored by infrared beam breaks for 20 min.\n(§1) C57BL/6 male mice were administered either compound or vehicle via oral gavage. Fifteen minutes later, the mice were injected with PCP (5 mg/kg) via the i.p. route. The mice were placed in activity chambers 10 minutes after PCP injection, and their locomotor activity in the horizontal dimension was monitored by infrared beam breaks for 20 min (5 consecutive 4-minute intervals (INT) as indicated).\nas §1, with “Twenty-five” for “Fifteen”, “injection” for “injection,”\nC57BL/6 male mice were given either compound or vehicle by oral gavage. Twenty-five minutes later they were injected with PCP (5 mg/kg, i.p.). Ten minutes later, the mice were placed in activity chambers, and their locomotor activity in the horizontal dimension was monitored by infrared beam breaks for 20 min (5 consecutive 4-minute intervals (INT) as indicated).\nC57BL/6 male mice were co-injected with PCP (5 mg/kg) and either compound or vehicle via the i.p. route. Ten minutes later, the mice were placed in activity chambers and their locomotor activity in the horizontal dimension was monitored by infrared beam breaks for 20 min (5 consecutive 4-minute intervals (INT) as indicated).\nas §1, with “oral gavage. Twenty-five minutes later,” for “oral gavage. Fifteen minutes later,”, “placed in the activity chambers” for “placed in activity chambers”, “after PCP injection and their” for “after PCP injection, and their”\nC57BL/6 male mice were administered either compound or vehicle via oral gavage. Twenty-five minutes later, the mice were injected with PCP (5 mg/kg) via the i.p. route. The mice were placed in the activity chambers 10 minutes after injection and their locomotor activity in the horizontal dimension was monitored by infrared beam breaks for 20 min (5 consecutive 4-minute intervals as indicated)."}, "PDE10 [3]": {"test_system": "PDE10", "settings": "cited from earlier work"}, "PDE10 [4]": {"biological_target": "PDE10", "settings": "cGMP binding to PDE10; read-out: dissociation constant (Kd); cited from earlier work"}, "[5]": {"biological_target": "T1, recombinant human PDE 10A1 (Homo sapiens, UniProt Q9Y233)", "T1 construct": "made in house; host or cells: Sf9 insect cells, baculoviral system", "T1 sequence (Q9Y233 1-779 isoform Q9Y233-1)": "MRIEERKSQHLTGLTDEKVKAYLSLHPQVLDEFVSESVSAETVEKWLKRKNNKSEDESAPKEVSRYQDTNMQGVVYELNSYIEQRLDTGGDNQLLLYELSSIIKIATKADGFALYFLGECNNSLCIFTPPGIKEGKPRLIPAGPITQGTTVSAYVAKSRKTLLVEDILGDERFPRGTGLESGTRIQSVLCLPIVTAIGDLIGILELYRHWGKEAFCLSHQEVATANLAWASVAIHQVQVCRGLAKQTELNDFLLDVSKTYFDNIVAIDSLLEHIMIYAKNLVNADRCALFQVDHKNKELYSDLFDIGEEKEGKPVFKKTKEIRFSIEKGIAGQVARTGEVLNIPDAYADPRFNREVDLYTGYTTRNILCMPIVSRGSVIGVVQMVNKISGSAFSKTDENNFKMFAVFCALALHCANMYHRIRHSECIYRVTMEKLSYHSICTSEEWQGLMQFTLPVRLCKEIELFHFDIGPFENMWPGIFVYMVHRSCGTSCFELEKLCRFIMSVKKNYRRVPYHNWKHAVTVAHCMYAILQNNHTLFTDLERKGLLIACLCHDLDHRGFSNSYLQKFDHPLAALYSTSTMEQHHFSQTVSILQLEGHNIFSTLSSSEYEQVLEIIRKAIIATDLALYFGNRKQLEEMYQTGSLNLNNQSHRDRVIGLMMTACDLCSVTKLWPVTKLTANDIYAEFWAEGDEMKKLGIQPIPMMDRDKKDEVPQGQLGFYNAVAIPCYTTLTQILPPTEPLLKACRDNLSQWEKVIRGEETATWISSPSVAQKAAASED", "test": "PDE10 biochemical assay (two-step Thompson and Appleman method or SPA)", "settings": "PDE10 inhibition; read-out: IC50", "description": "After the appropriate incubation time, the reaction is terminated by heating. The mixture is then subjected to treatment with snake venom phosphatase. […] IC50 values can be calculated by performing the experiment at several concentrations using standard graphical means. A detailed description of the actual technique used for IC50 assays as set forth in following Examples.\nThe phosphodiesterase (PDE) assay was performed using recombinant human PDE 1A3, 2A3, 3 catalytic region, 4 catalytic region, 5 catalytic region, 7A, 8A, 9A2, 10A1 and 11A1 enzymes expressed in a baculoviral system using Sf9 cells. PDE activity was measured using a modification of the two-step method of Thompson and Appleman described above which was adapted for 96 well plate format. […] Reactions were initiated with enzyme and incubated with (^3H)-substrate and substance for 20 minutes at 30° C. The reaction was terminated by denaturing the enzyme (heating the reaction to 70° C. for 2 minutes). The reaction was then cooled at 4° C. for 10 minutes before the addition of snake venom (Crotalus atrox, 0.2 mg/ml) for 10 minutes at 30° C., thus allowing non-specific hydrolysis of the tritiated substrate. Separation of the remaining unhydrolysed cyclic nucleotide was achieved by a batch binding of the mixture to activated Dowex (200 μl) anion exchange resin. The anion exchange resin bound the charged nucleotides, leaving only hydrolysed (^3H) substrate in the soluble fraction. The soluble fraction (50 μl) was then added to microscint-20 (200 μl) and counted on a Top Count Plate reader. Radioactivity units were plotted against inhibitor concentration and IC50 values obtained using Graph Pad Prism software.\nAlternatively, phosphodiesterase activity was measured by scintillation proximity assay (SPA) with [^3H]-cGMP as substrate. Purified PDE10 was diluted and stored in 25 mM Tris-Cl (pH 8.0)/100 mM NaCl/0.05% Tween 20/50% glycerol/3 mM DTT. Assays contained (final concentrations): 50 mM Tris-Cl (pH 7.5)/8.3 mM MgCl2/1.7 mM EGTA/0.5 mg/ml BSA/5% DMSO and 2 ng PDE10 in a final volume of 0.1 mL. Inhibition was evaluated at 8 concentrations in duplicate. Reactions were initiated by addition of enzyme and were terminated after 20 minutes at 30° C. by the addition of 50 μl of SPA beads containing Zn^++. The mixture was shaken, allowed to settle for 3 hours, and counted in a Wallac plate counter. Results (net cpm) were fitted to a four parameter logistic model using Excel Solver®."}}}
{"smiles": "COc1cc(/C=N/NC(=O)C(OC)c2ccc(-n3cccn3)cc2)cc(OC)c1Br", "note": "(centres unmarked) [Compound 12-104]", "values": [{"measurement": "number of avoidance responses (CAR) vs vehicle", "setting": "C57BL/6 male mice [1]; 10 mg/kg oral", "value": "significantly reduces the number of avoidance response"}, {"measurement": "number of avoidance responses (CAR) vs vehicle", "setting": "C57BL/6 male mice [1]; 30 mg/kg oral", "value": "significantly reduces the number of avoidance response"}, {"measurement": "conditioned avoidance response (CAR) in trained mice as compared to vehicle control", "setting": "C57BL/6 male mice [1]", "value": "significantly reduces a conditioned avoidance response"}, {"measurement": "PCP-induced hyperactivity compared to vehicle+PCP control", "setting": "C57BL/6 male mice [2]; mouse, in vivo", "value": "reduces or abolishes the hyperactivity"}, {"measurement": "hyperactivity of mice in PCP-induced model of psychosis as compared to vehicle control", "setting": "C57BL/6 male mice [2]; mouse, in vivo", "value": "significantly reduces hyperactivity"}]}
{"smiles": "CC(C)Cn1c(=O)n(C)c(=O)c2[nH]cnc21", "note": "[IBMX, reference compound]", "values": [{"measurement": "IC50", "setting": "PDE10 [3]; read-out: IC50 (50% inhibitory concentration), inhibition of PDE10", "value": 2600, "unit": "nM"}]}
{"smiles": "Nc1nc2c(ncn2[C@@H]2O[C@@H]3COP(=O)(O)O[C@H]3[C@H]2O)c(=O)[nH]1", "note": "[cGMP]", "values": [{"measurement": "Km", "setting": "PDE10 [3]; substrate hydrolysis by PDE10", "value": 3, "unit": "µM"}, {"measurement": "Kd", "setting": "PDE10 [4]", "value": "> 9000", "unit": "nM"}]}
{"smiles": "COc1cc(/C=N/NC(=O)C(OC)c2ccc(N3CCOCC3)cc2)cc(OC)c1Br", "note": "(centres unmarked) [Compound 12-114]", "values": [{"measurement": "number of avoidance responses (CAR) vs vehicle", "setting": "C57BL/6 male mice [1]; 10 mg/kg oral", "value": "significantly reduces the number of avoidance response"}, {"measurement": "conditioned avoidance response (CAR) in trained mice as compared to vehicle control", "setting": "C57BL/6 male mice [1]", "value": "significantly reduces a conditioned avoidance response"}, {"measurement": "PCP-induced hyperactivity compared to vehicle+PCP control", "setting": "C57BL/6 male mice [2]; mouse, in vivo", "value": "completely abolishes the hyperactivity"}, {"measurement": "hyperactivity of mice in PCP-induced model of psychosis as compared to vehicle control", "setting": "C57BL/6 male mice [2]; mouse, in vivo", "value": "significantly reduces hyperactivity"}]}
{"smiles": "CCOC(C(=O)N/N=C/c1cc(OC)c(Br)c(OC)c1)c1cccc2ncccc12", "note": "(centres unmarked) [Compound 12-60]", "values": [{"measurement": "PCP-induced hyperactivity compared to vehicle", "setting": "C57BL/6 male mice [2]; 10 mg/kg i.p., ten minutes before PCP 5 mg/kg i.p.", "value": "a similar result"}, {"measurement": "hyperactivity of mice in PCP-induced model of psychosis as compared to vehicle control", "setting": "C57BL/6 male mice [2]; dose not stated", "value": "significantly reduces hyperactivity"}, {"measurement": "IC50", "setting": "[5]", "value": "≤ 1000", "unit": "nM"}]}
{"smiles": "CCOc1cc(/C=N/NC(=O)C(OC)c2ccc(Cl)cc2)cc(Cl)c1OC", "note": "(centres unmarked) [Compound 12-5]", "values": [{"measurement": "IC50", "setting": "[5]", "value": "≤ 1000", "unit": "nM"}]}
{"smiles": "COc1cc(/C=N/NC(=O)C(OC)c2ccc(Cl)cc2)cc(Br)c1OC", "note": "(centres unmarked) [Compound 12-4]", "values": [{"measurement": "IC50", "setting": "[5]", "value": "≤ 1000", "unit": "nM"}]}
{"smiles": "CCOC(C(=O)N/N=C/c1cc(OC)c(OC)c(OC)c1)c1ccc2c(c1)OCCO2", "note": "(centres unmarked) [Compound 12-88]", "values": [{"measurement": "IC50", "setting": "[5]", "value": "≤ 1000", "unit": "nM"}]}
{"smiles": "CCOC(C(=O)N/N=C/c1cc(OC)c(Cl)c(OC)c1)c1cccc2ncccc12", "note": "(centres unmarked) [Compound 12-119]", "values": [{"measurement": "IC50", "setting": "[5]", "value": "≤ 1000", "unit": "nM"}]}
{"smiles": "COc1cc(/C=N/NC(=O)C(OC)c2ccccc2)cc(OC)c1", "note": "(centres unmarked) [Compound 12-25]", "values": [{"measurement": "IC50", "setting": "[5]", "value": "≤ 1000", "unit": "nM"}]}
{"smiles": "CCOC(C(=O)N/N=C/c1cc(OC)c(Br)c(OC)c1)c1ccc2c(c1)OCCO2", "note": "(centres unmarked) [Compound 12-87]", "values": [{"measurement": "IC50", "setting": "[5]", "value": "≤ 1000", "unit": "nM"}]}
{"smiles": "COc1cc(/C=N/NC(=O)C(OC)c2ccc(F)cc2)cc(Br)c1OC", "note": "(centres unmarked) [Compound 12-3]", "values": [{"measurement": "IC50", "setting": "[5]", "value": "≤ 1000", "unit": "nM"}]}
{"smiles": "COc1cc(/C=N/NC(=O)C(OC)c2ccccc2)cc(OC)c1O", "note": "(centres unmarked) [Compound 12-24]", "values": [{"measurement": "IC50", "setting": "[5]", "value": "≤ 1000", "unit": "nM"}]}
